Measured values as given in US20170296521A1, “PHARMACEUTICAL COMPOSITION FOR SUPPRESSION OF THROMBOEMBOLISM AFTER STENT PLACEMENT” (priority 2014, published 2017).
Structures can show the parent of a compound that is named as a salt.

Tested on: thrombus formation on stents in arteriovenous shunts
Assay: rat stent thrombosis model (AV shunt with stents), amount of protein in thrombus
Type: in vivo
Details: for dose responsiveness of the antithrombotic effect: Example 1, Spearman's correlation coefficient test, P<0.001; for suppression of thrombus formation (rate of inhibition of amount of protein in thrombus): Example 1, FIG. 1A
Description: Each rat was anesthetized with thiopental sodium (100 mg/mL/kg, i.p.) and placed on a warming mat. 18 minutes after the start of the anesthesia, polyethylene tubes (approximately 34 cm) containing four stents were inserted into the right and left carotid arteries and jugular veins to produce arteriovenous shunts (hereinafter, referred to as “AV shunts”). Blood flow was started in the shunts. 30 minutes after the start of the blood flow, the stents with thrombus attached thereto were taken out, and the amount of protein in the thrombus was measured.
A 0.5% MC solution (10 mL/kg or 15 mL/kg) was orally administered to a control group. […] The collected thrombus-attached stents were stored at −20° C. until protein quantification. […] Then, the anti-FXa activity in the plasma was measured.
Aspirin (5 mg/15 ml/kg) or clopidogrel (3 mg/10 ml/kg) was orally administered to each rat fasted overnight. […] A 0.5% MC solution (10 mL/kg or 15 mL/kg) was orally administered to a control group.
Amount of protein in thrombus: The thrombus-attached stents were placed in 0.9 mL of a 0.1 N NaOH solution containing 2% Na2CO3 and boiled for approximately 30 minutes to solubilize protein.

CC(=O)Oc1ccccc1C(=O)O [aspirin]
rate of suppression of thrombus formation (Example 1, FIG. 2A, 5 mg/kg orally two hours before AV shunting): 40%
rate of suppression of thrombus formation (Example 1, FIG. 2A, 10 mg/kg orally two hours before AV shunting): 47%
significance of the suppression of thrombus formation vs control (Example 1, FIG. 2A, 5 and 10 mg/kg orally, Dunnett's test): no significant effect
suppression of thrombus formation (Example 1, FIG. 2B, 10 mg/kg orally two hours before AV shunting): 63%
suppression of thrombus formation (Example 1, FIG. 2B, 25 mg/kg orally two hours before AV shunting): 64%
suppression of thrombus formation (Example 1, FIG. 2B, 50 mg/kg orally two hours before AV shunting): 70%
suppression of thrombus formation (Example 1, FIG. 2B, 100 mg/kg orally two hours before AV shunting): 83%
dose responsiveness of the antithrombotic effect: dose-dependent
rate of suppression of thrombus formation (Example 2, FIG. 5A, aspirin 5 mg/kg orally alone): 42%

CN1CCc2nc(C(=O)N[C@@H]3C[C@@H](C(=O)N(C)C)CC[C@@H]3NC(=O)C(=O)Nc3ccc(Cl)cn3)sc2C1.Cc1ccc(S(=O)(=O)O)cc1 [edoxaban, N-(5-chloropyridin-2-yl)-N′-[(1S,2R,4S)-4-(dimethylcarbamoyl)-2-(5-methyl-4,5,6,7-tetrahydro[1,3]thiazolo[5,4-c]pyridine-2-carboxamido)cyclohexyl]oxamide]
suppression of thrombus formation (rate of inhibition of amount of protein in thrombus) (0.3 mg/kg orally 30 minutes before AV shunting): 37%
suppression of thrombus formation (rate of inhibition of amount of protein in thrombus) (1 mg/kg orally 30 minutes before AV shunting): 70%
suppression of thrombus formation (rate of inhibition of amount of protein in thrombus) (3 mg/kg orally 30 minutes before AV shunting): 86%
dose responsiveness of the antithrombotic effect: dose-dependent
rate of suppression of thrombus formation (Example 2, FIG. 5A, edoxaban 0.5 mg/kg orally alone): 42%
rate of suppression of thrombus formation (Example 2, FIG. 6A, edoxaban 0.5 mg/kg orally alone): 25%

COC(=O)[C@H](c1ccccc1Cl)N1CCc2sccc2C1 [clopidogrel, clopidogrel sulfate]
suppression of thrombus formation (Example 1, FIG. 3, 1 mg/kg orally two hours before AV shunting): 40%
suppression of thrombus formation (Example 1, FIG. 3, 3 mg/kg orally two hours before AV shunting): 47%
suppression of thrombus formation (Example 1, FIG. 3, 10 mg/kg orally two hours before AV shunting): 84%
suppression of thrombus formation (Example 1, FIG. 3, 30 mg/kg orally two hours before AV shunting): 94%
dose responsiveness of the antithrombotic effect: dose-dependent
rate of suppression of thrombus formation (Example 2, FIG. 6A, clopidogrel 3 mg/kg orally alone): 21%

ticagrelor sulfate
suppression of thrombus formation (Example 1, FIG. 4, 0.3 mg/kg orally two hours before AV shunting): 67%
suppression of thrombus formation (Example 1, FIG. 4, 1 mg/kg orally two hours before AV shunting): 74%
suppression of thrombus formation (Example 1, FIG. 4, 3 mg/kg orally two hours before AV shunting): 89%
dose responsiveness of the antithrombotic effect: dose-dependent
